Earlier results on one molecule are cited in patent EP1131101B1, “KHELLIN PREPARATION AND THE USE THEREOF FOR TOPICAL THERAPY” (priority 1998, dated 2000).

The structures appear in SMILES notation.

Series [1] relates to Grünalgen.
The conditions of series [2]: animal experiments; UVA phototherapy with Khellin compared with photochemotherapy with 8-MOP.
For series [3], the system named is Bakterien.
For series [4], the system named is Plaque-Psoriasis. To be noted: oral 100 mg Khellin then sun exposure.

For `COc1c2occc2c(OC)c2c(=O)cc(C)oc12` [Khellin, 4,9-Dimethoxy-7-methyl-5H-furo[3,2-g][1] benzopyran-5-on], the Mutagenität entry in series [1] is on record as “keine signifikante Mutagenität”. Further, in series [2], the “karzinogenes Risiko” value was “deutlich geringeres karzinogenes Risiko”. Besides, in series [3], the Photomutagenität entry is recorded as “nur eine geringe Photomutagenität”. Further, the “auf die Behandlung ansprachen” value in series [4] (10 patients with plaque psoriasis) is reported as 80%. Besides, the “für drei Jahre symptomfrei” value in series [4] (of the responding patients) is 6 von 8.
